Experimental data published in PubChem BioAssay AID248 (DTP/NCI, 2004).
Values joined by “and” are separate entries in the source; they are usually repeats but may differ in a detail not shown here. Identical values can stand only once. Inconclusive results and toxic doses are left out. No stated cut-off is given here; in the data, active means T/C of 150% or more; inactive means T/C below 125%.

System: L1210 leukemia ip in BDF1 mice, survival T/C
Experiment: NCI In Vivo Anticancer Drug Screen. Data for tumor model L1210 Leukemia (intraperitoneal) in B6D2F1 (BDF1) mice
Settings: endpoint: mean survival time, higher = longer survival
Procedure, shortened: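 Tumor was transplanted into mice, which were then dosed with test compound or vehicle alone. Survival was recorded for each group, and the treated figure was expressed relative to the control figure.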

[1] = dose: 100.0 mg/kg/injection, schedule: Q04DX003 (ip), vehicle: Klucel (hydroxypropylcellulose) (HPC)
[2] = dose: 200.0 mg/kg/injection, schedule: Q04DX003 (ip), vehicle: Klucel (hydroxypropylcellulose) (HPC)
[3] = dose: 400.0 mg/kg/injection, schedule: Q04DX003 (ip), vehicle: Klucel (hydroxypropylcellulose) (HPC)
[4] = dose: 100.0 mg/kg/injection, schedule: Q01DX001 (ip), vehicle: saline
[5] = dose: 200.0 mg/kg/injection, schedule: Q01DX001 (ip), vehicle: saline
[6] = dose: 400.0 mg/kg/injection, schedule: Q01DX001 (ip), vehicle: saline
[7] = dose: 100.0 mg/kg/injection, schedule: Q04DX003 (ip), vehicle: saline
[8] = dose: 200.0 mg/kg/injection, schedule: Q04DX003 (ip), vehicle: saline
[9] = dose: 400.0 mg/kg/injection, schedule: Q04DX003 (ip), vehicle: saline
[10] = dose: 100.0 mg/kg/injection, schedule: Q01DX009 (ip), vehicle: saline
[11] = dose: 200.0 mg/kg/injection, schedule: Q01DX009 (ip), vehicle: saline

Measured: T/C

NC(=S)N/N=C/c1ccc([N+](=O)[O-])s1
inactive: dose: 12.5 mg/kg/injection, schedule: Q01DX005 (ip), vehicle: water 102 % of control | dose: 25.0 mg/kg/injection, schedule: Q01DX005 (ip), vehicle: water 98 % of control | dose: 50.0 mg/kg/injection, schedule: Q01DX005 (ip), vehicle: water 93 % of control | dose: 50.0 mg/kg/injection, schedule: Q04DX003 (ip), vehicle: saline with Tween-80 103 % of control | dose: 100.0 mg/kg/injection, schedule: Q01DX005 (ip), vehicle: water 100 % of control | dose: 100.0 mg/kg/injection, schedule: Q04DX003 (ip), vehicle: saline with Tween-80 104 % of control | dose: 100.0 mg/kg/injection, schedule: Q04DX003 (ip), vehicle: water 88 % of control | dose: 200.0 mg/kg/injection, schedule: Q01DX005 (ip), vehicle: water 94 % of control | dose: 200.0 mg/kg/injection, schedule: Q04DX003 (ip), vehicle: saline with Tween-80 100 % of control | dose: 200.0 mg/kg/injection, schedule: Q04DX003 (ip), vehicle: water 91 % of control

Nc1ncc(N=O)c(=O)[nH]1
inactive: dose: 100.0 mg/kg/injection, schedule: Q04DX002 (ip), vehicle: Klucel (hydroxypropylcellulose) (HPC) 96 % of control | dose: 200.0 mg/kg/injection, schedule: Q04DX002 (ip), vehicle: Klucel (hydroxypropylcellulose) (HPC) 99 % of control | dose: 400.0 mg/kg/injection, schedule: Q04DX002 (ip), vehicle: Klucel (hydroxypropylcellulose) (HPC) 96 % of control and 101 % of control

CC(C)C(C)/C=C/C(C)C1CCC2C3=C(C=CC21C)C1(C)CCCCC1=CC3C1C=C2CCCCC2(C)C2=C1C1CCC(C(C)/C=C/C(C)C(C)C)C1(C)C=C2 (stereo unspecified)
inactive: [1] 90 % of control | [2] 100 % of control | [3] 90 % of control

CCC(OC(=O)Nc1ccc(S(=O)(=O)NC2CCCCC2)cc1)c1ccco1 (stereo unspecified)
inactive: [4] 94 % of control | [5] 88 % of control | [6] 91 % of control

CCNC(=O)N1CC2CCC(C1)N2C
inactive: [7] 113 % of control | [8] 106 % of control | [9] 98 % of control

Clc1ccc(Cl)c(-c2csc(-c3cccnc3)n2)c1
inactive: [10] 100 % of control | [11] 100 % of control | dose: 400.0 mg/kg/injection, schedule: Q01DX009 (ip), vehicle: saline 89 % of control

CC(=O)c1csc2ccccc12
inactive: dose: 12.5 mg/kg/injection, schedule: Q01DX009 (ip), vehicle: Klucel (hydroxypropylcellulose) (HPC) 106 % of control | dose: 25.0 mg/kg/injection, schedule: Q01DX009 (ip), vehicle: Klucel (hydroxypropylcellulose) (HPC) 101 % of control | dose: 50.0 mg/kg/injection, schedule: Q01DX009 (ip), vehicle: Klucel (hydroxypropylcellulose) (HPC) 106 % of control

CCCCCCC1(C)NC(=O)NC1=O (stereo unspecified)
inactive: [4] 102 % of control | [5] 100 % of control | [6] 96 % of control

CC1(C)Cc2ccccc2C(c2ccccn2)=N1
inactive: [1] 96 % of control | [2] 112 % of control | [3] 112 % of control

CN(C)C(=S)SCC(=O)[O][Sn]([c]1ccccc1)([c]1ccccc1)[c]1ccccc1
inactive: dose: 6.25 mg/kg/injection, schedule: Q04DX002 (ip), vehicle: saline with Tween-80 96 % of control | dose: 12.5 mg/kg/injection, schedule: Q04DX002 (ip), vehicle: saline with Tween-80 93 % of control | dose: 25.0 mg/kg/injection, schedule: Q04DX002 (ip), vehicle: saline with Tween-80 104 % of control

O=Cc1c[nH]c(=O)[nH]c1=O
inactive: dose: 50.0 mg/kg/injection, schedule: Q01DX009 (ip), vehicle: saline 109 % of control | dose: 100.0 mg/kg/injection, schedule: Q01DX001 (ip), vehicle: Klucel (hydroxypropylcellulose) (HPC) 94 % of control | [10] 103 % of control | [7] 95 % of control | dose: 200.0 mg/kg/injection, schedule: Q01DX001 (ip), vehicle: Klucel (hydroxypropylcellulose) (HPC) 105 % of control | [11] 106 % of control | [8] 103 % of control | dose: 400.0 mg/kg/injection, schedule: Q01DX001 (ip), vehicle: Klucel (hydroxypropylcellulose) (HPC) 101 % of control | [9] 95 % of control

C(#[C][Sn]([c]1ccccc1)([c]1ccccc1)[c]1ccccc1)c1ccccc1
inactive: dose: 25.0 mg/kg/injection, schedule: Q04DX002 (ip), vehicle: Klucel (hydroxypropylcellulose) (HPC) 97 % of control | dose: 50.0 mg/kg/injection, schedule: Q04DX002 (ip), vehicle: Klucel (hydroxypropylcellulose) (HPC) 90 % of control

COc1cc2c(cc1OC)C(Cc1cc(OC)c(OC)cc1[N+](=O)[O-])=NCC2
inactive: [4] 100 % of control | [5] 98 % of control | [6] 94 % of control
